Experimental data: patent publication US20240246980A1, “MODULATORS OF MAS-RELATED G-PROTEIN RECEPTOR D AND RELATED PRODUCTS AND METHODS” (Escient Pharmaceuticals, Inc., priority 2022, published 2024)

Each compound was assayed against human MRGPRD (Homo sapiens, UniProt Q8TDS7) (assay: MRGPRD antagonist activity, IP-One HTRF assay in CHO cells stably expressing human MRGPRD (versus 100 μM β-Alanine agonist)).
Format: cell-based
How it was run: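 Cells (20,000/well, plated overnight) received antagonist and agonist in buffer with 5.7 mM Tris-HCl, 43 mM NaCl and 50 mM LiCl at pH 8. Incubation ran 1 h at 37 °C, then 1 h at room temperature, before IP-1 HTRF detection. IC50 was fitted from the HTRF ratio, and percent antagonism was taken relative to the maximum efficacy response, given as averages with SEM.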

human MRGPRD, sequence (Q8TDS7 whole entry): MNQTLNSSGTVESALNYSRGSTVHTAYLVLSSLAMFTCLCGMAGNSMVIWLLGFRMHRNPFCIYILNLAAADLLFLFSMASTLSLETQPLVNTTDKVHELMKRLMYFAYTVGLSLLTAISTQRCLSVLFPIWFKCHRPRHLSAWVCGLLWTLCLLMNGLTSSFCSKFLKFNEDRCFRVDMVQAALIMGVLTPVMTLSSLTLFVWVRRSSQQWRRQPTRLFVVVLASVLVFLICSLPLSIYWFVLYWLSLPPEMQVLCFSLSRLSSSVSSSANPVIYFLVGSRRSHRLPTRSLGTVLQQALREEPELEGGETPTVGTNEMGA

Row | Compound | IC50
1 | CN(C)c1ccc(NC(=O)N2CCC[C@@H](c3nc(-c4ccc(S(C)(=O)=O)cc4)c4ccccn34)C2)cc1 [Compound 10-35] | > 3000 nM
2 | CC(=O)c1ccc(-c2nc([C@@H]3CCCN(C(=O)Nc4ccc(N(C)C)cc4)C3)n3ccccc23)cc1 [Compound 10-36] | 500 to 1000 nM
3 | COc1ccccc1-c1nc([C@@H]2CCCN(C(=O)Nc3ccc(N(C)C)cc3)C2)n2ccccc12 [Compound 10-37] | 500 to 1000 nM
4 | COc1cccc(-c2nc([C@@H]3CCCN(C(=O)NCCN4CCOCC4)C3)n3ccccc23)c1 [Compound 10-38] | 500 to 1000 nM
5 | COC/C=C/c1nc([C@@H]2CCCN(C(=O)Nc3ccc(N(C)C)cc3)C2)n2ccccc12 [Compound 10-39] | > 3000 nM
6 | CNc1cccc(-c2nc([C@@H]3CCCN(C(=O)Nc4ccc(N(C)C)cc4)C3)n3ccccc23)c1 [Compound 10-40] | 500 to 1000 nM
7 | COCCCc1nc([C@@H]2CCCN(C(=O)Nc3ccc(N(C)C)cc3)C2)n2ccccc12 [Compound 10-41] | 1000 to 3000 nM
8 | CN(C)c1ccc(NC(=O)N2CCC[C@@H](c3nc(-c4cccc(F)c4)c4ccccn34)C2)cc1 [Compound 10-42] | 500 to 1000 nM
9 | COc1ccc(-c2nc([C@@H]3CCCN(C(=O)Nc4ccc(N(C)C)cc4)C3)n3ccccc23)cc1 [Compound 10-43] | 500 to 1000 nM
10 | CN(C)c1ccc(NC(=O)N2CCC[C@@H](c3nc(C4=CCCCC4)c4ccccn34)C2)cc1 [Compound 10-44] | 100 to 500 nM
11 | CN(C)c1ccc(NC(=O)N2CCC[C@@H](c3nc(C4CCCCC4)c4ccccn34)C2)cc1 [Compound 10-45] | 100 to 500 nM
12 | CN(C)C(=O)c1ccc(-c2nc([C@@H]3CCCN(C(=O)Nc4ccc(N(C)C)cc4)C3)n3ccccc23)cc1 [Compound 10-46] | > 3000 nM
13 | CN(C)c1ccc(NC(=O)N2CCC[C@@H](c3nc(-c4csc5ccccc45)c4ccccn34)C2)cc1 [Compound 10-47] | 100 to 500 nM
14 | COc1ccc(-c2nc([C@H]3CCCN(C(=O)Nc4ccc(N(C)C)cc4)C3)n3ccccc23)cc1 [Compound 10-48] | 1000 to 3000 nM
15 | CN(C)c1ccc(NC(=O)N2CCC[C@@H](c3nc(-c4ccc(C(F)F)cc4)c4ccccn34)C2)cc1 [Compound 10-49] | 100 to 500 nM
16 | CN(C)c1ccc(NC(=O)N2CCC[C@@H](c3nc(-c4cccc5c4CCC5)c4ccccn34)C2)cc1 [Compound 10-50] | < 100 nM
17 | CN(C)c1ccc(NC(=O)N2CCC[C@@H](c3nc(-c4cccc5c4OCO5)c4ccccn34)C2)cc1 [Compound 10-51] | < 100 nM
18 | CN(C)c1ccc(NC(=O)N2CCC[C@@H](c3nc(-c4cnn(Cc5ccccc5)c4)c4ccccn34)C2)cc1 [Compound 10-52] | 1000 to 3000 nM
19 | CN(C)c1ccc(NC(=O)N2CCC[C@@H](c3nc(-c4cnoc4)c4ccccn34)C2)cc1 [Compound 10-53] | 500 to 1000 nM
20 | CN(C)c1ccc(NC(=O)N2CCC[C@@H](c3nc(-c4cn(S(=O)(=O)c5ccccc5)c5ccccc45)c4ccccn34)C2)cc1 [Compound 10-54] | 500 to 1000 nM
21 | Cc1noc(C)c1-c1nc([C@@H]2CCCN(C(=O)Nc3ccc(N(C)C)cc3)C2)n2ccccc12 [Compound 10-55] | 500 to 1000 nM
22 | CC(=O)c1ccc(-c2nc([C@@H]3CCCN(C(=O)Nc4ccc(N(C)C)cc4)C3)n3ccccc23)s1 [Compound 10-57] | 500 to 1000 nM
23 | Cc1csc(-c2nc([C@@H]3CCCN(C(=O)Nc4ccc(N(C)C)cc4)C3)n3ccccc23)c1 [Compound 10-58] | 500 to 1000 nM
24 | CN(C)c1ccc(NC(=O)N2CCC[C@@H](c3nc(-c4cccc(S(C)(=O)=O)c4)c4ccccn34)C2)cc1 [Compound 10-59] | 1000 to 3000 nM
25 | COc1ncc(-c2nc([C@@H]3CCCN(C(=O)Nc4ccc(N(C)C)cc4)C3)n3ccccc23)cn1 [Compound 10-60] | > 3000 nM

Row | Compound | IC50
26 | CN(C)c1ccc(NC(=O)N2CCC[C@@H](c3nc(-c4cc5ccccc5s4)c4ccccn34)C2)cc1 [Compound 10-61] | > 3000 nM
27 | CN(C)c1ccc(NC(=O)N2CCC[C@@H](c3nc(-c4cnn(CC5CC5)c4)c4ccccn34)C2)cc1 [Compound 10-62] | 1000 to 3000 nM
28 | CN(C)c1ccc(NC(=O)N2CCC[C@@H](c3nc(-c4cnn(-c5ccccc5)c4)c4ccccn34)C2)cc1 [Compound 10-63] | 1000 to 3000 nM
29 | CN(C)Cc1cccc(-c2nc([C@@H]3CCCN(C(=O)Nc4ccc(N(C)C)cc4)C3)n3ccccc23)c1 [Compound 10-64] | > 3000 nM
30 | CN(C)c1ccc(NC(=O)N2CCC[C@@H](c3nc(-c4ccccc4CC#N)c4ccccn34)C2)cc1 [Compound 10-65] | 500 to 1000 nM
31 | CN(C)c1ccc(NC(=O)N2CCC[C@@H](c3nc(-c4ccccc4S(C)(=O)=O)c4ccccn34)C2)cc1 [Compound 10-66] | > 3000 nM
32 | COCc1cccc(-c2nc([C@@H]3CCCN(C(=O)Nc4ccc(N(C)C)cc4)C3)n3ccccc23)c1 [Compound 10-67] | 1000 to 3000 nM
33 | CN(C)c1ccc(NC(=O)N2CCC[C@@H](c3nc(-c4nn(C)c5ccccc45)c4ccccn34)C2)cc1 [Compound 10-68] | 500 to 1000 nM
34 | CC(C)Cn1nc(C(F)(F)F)cc1-c1nc([C@@H]2CCCN(C(=O)Nc3ccc(N(C)C)cc3)C2)n2ccccc12 [Compound 10-69] | 500 to 1000 nM
35 | COC(=O)c1cccc(-c2nc([C@@H]3CCCN(C(=O)Nc4ccc(N(C)C)cc4)C3)n3ccccc23)c1 [Compound 10-70] | < 100 nM
36 | CN(C)C(=O)c1cccc(-c2nc([C@@H]3CCCN(C(=O)Nc4ccc(N(C)C)cc4)C3)n3ccccc23)c1 [Compound 10-71] | < 100 nM
37 | CN(C)c1ccc(NC(=O)N2CCC[C@@H](c3nc(-c4cnn(C(F)F)c4)c4ccccn34)C2)cc1 [Compound 10-72] | 100 to 500 nM
38 | Cc1ccccc1-c1nc(C2CCCN(C(=O)Nc3ccccc3F)C2)n2ccccc12 (centres unmarked) [Compound 11-1] | 1000 to 3000 nM
39 | O=C(Nc1ccccc1F)N1CCCC(c2nc(-c3ccccc3F)c3ccccn23)C1 (centres unmarked) [Compound 11-2] | 1000 to 3000 nM
40 | COc1ccccc1-c1nc(C2CCCN(C(=O)Nc3ccccc3F)C2)n2ccccc12 (centres unmarked) [Compound 11-3] | 1000 to 3000 nM
41 | Cc1cccc(-c2nc(C3CCCN(C(=O)Nc4ccccc4F)C3)n3ccccc23)c1 (centres unmarked) [Compound 11-4] | > 3000 nM
42 | O=C(Nc1ccccc1F)N1CCCC(c2nc(-c3cccc(F)c3)c3ccccn23)C1 (centres unmarked) [Compound 11-5] | 1000 to 3000 nM
43 | O=C(Nc1ccccc1F)N1CCCC(c2nc(-c3cccnc3)c3ccccn23)C1 (centres unmarked) [Compound 11-6] | > 3000 nM
44 | Cc1ccc(-c2nc(C3CCCN(C(=O)Nc4ccccc4F)C3)n3ccccc23)cc1 (centres unmarked) [Compound 11-7] | 1000 to 3000 nM
45 | O=C(Nc1ccccc1F)N1CCCC(c2nc(-c3ccc(F)cc3)c3ccccn23)C1 (centres unmarked) [Compound 11-8] | 1000 to 3000 nM
46 | O=C(Nc1ccccc1F)N1CCCC(c2nc(-c3ccncc3)c3ccccn23)C1 (centres unmarked) [Compound 11-10] | 1000 to 3000 nM
47 | O=C(Nc1ccccc1F)N1CCCC(c2nc(-c3ccccn3)c3ccccn23)C1 (centres unmarked) [Compound 11-11] | > 3000 nM
48 | COc1cccc(-c2nc(C3CCCN(C(=O)Cc4ccccc4F)C3)n3ccccc23)c1 (centres unmarked) [Compound 12-1, 2-(2-fluorophenyl)-1-(3-(1-(3-methoxyphenyl)imidazo[1,5-a]pyridin-3-yl)piperidin-1-yl)ethan-1-one] | 100 to 500 nM
49 | COc1cccc(-c2nc(C3CCCN(C(=O)Cc4ccc(F)cc4)C3)n3ccccc23)c1 (centres unmarked) [Compound 12-2] | 500 to 1000 nM
50 | COc1cccc(-c2nc(C3CCCN(C(=O)c4ccc(F)cc4)C3)n3ccccc23)c1 (centres unmarked) [Compound 12-3] | 500 to 1000 nM
